# Test results: patent publication US10266537B2, “3-acetylenyl-pyrazole-pyrimidine derivative, and preparation method therefor and uses thereof” (Si Chuan University, priority 2015, dated 2019)
# Assays:
# H4 = experiment: Cell proliferation inhibition assay (MTT); type: cell-based; details: Homo sapiens, 72 hours, read-out: Proliferation inhibitory activity IC50
# Procedure: (§1) The cells were seeded in 96-well plates with 200 μL of cell suspension per well and incubated overnight in a cell culture medium with a cell concentration of 1 2×10^4 cells/mL. The next day, the supernatant was discarded (the suspension cell was centrifuged before it) and the cells were treated with gradient concentrations of the test compound, respectively. […] After 72 hours, add 20 μL of MTT reagent at a concentration of 5 mg/mL per well. After incubation for 2-4 h, the supernatant was discarded and 150 μL of DMSO was added to each well. […] Relative cell proliferation inhibition rate=([MUT]-[MUT])×100%/[MUT]. The experiment was repeated at least 3 times. Experimental data were expressed as mean, data statistics using t test, P<0.05 for the difference was statistically significant.
# MM.1S = experiment: Cell proliferation inhibition assay (MTT); type: cell-based; details: Homo sapiens, MM1.S, 72 hours, read-out: Proliferation inhibitory activity IC50
# Procedure: as §1
# SGK3(h) = SGK3(h) (Homo sapiens (Human), UniProt Q96BR1); experiment: Kinase inhibition assay (KinaseProfiler, 33P-ATP); type: biochemical; details: read-out: The percentage of the remaining active protein
# Sequence of SGK3(h) (Q96BR1 whole entry): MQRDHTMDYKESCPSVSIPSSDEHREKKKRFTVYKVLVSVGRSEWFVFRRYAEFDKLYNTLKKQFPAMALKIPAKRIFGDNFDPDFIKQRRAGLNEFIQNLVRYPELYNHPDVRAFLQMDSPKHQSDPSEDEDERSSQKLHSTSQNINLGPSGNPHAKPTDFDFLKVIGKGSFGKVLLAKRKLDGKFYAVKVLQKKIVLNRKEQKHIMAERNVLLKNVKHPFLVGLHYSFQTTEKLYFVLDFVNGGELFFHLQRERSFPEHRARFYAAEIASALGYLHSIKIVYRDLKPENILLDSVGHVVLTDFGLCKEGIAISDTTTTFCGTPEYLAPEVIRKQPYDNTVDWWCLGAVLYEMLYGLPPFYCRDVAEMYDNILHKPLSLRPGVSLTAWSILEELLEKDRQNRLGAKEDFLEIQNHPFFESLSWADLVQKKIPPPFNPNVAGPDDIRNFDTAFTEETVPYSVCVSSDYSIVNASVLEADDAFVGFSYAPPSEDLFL
# Plk3(h) = Plk3(h) (Homo sapiens (Human), UniProt Q9H4B4); experiment: Kinase inhibition assay (KinaseProfiler, 33P-ATP); type: biochemical; details: read-out: The percentage of the remaining active protein
# Sequence of Plk3(h) (Q9H4B4 whole entry): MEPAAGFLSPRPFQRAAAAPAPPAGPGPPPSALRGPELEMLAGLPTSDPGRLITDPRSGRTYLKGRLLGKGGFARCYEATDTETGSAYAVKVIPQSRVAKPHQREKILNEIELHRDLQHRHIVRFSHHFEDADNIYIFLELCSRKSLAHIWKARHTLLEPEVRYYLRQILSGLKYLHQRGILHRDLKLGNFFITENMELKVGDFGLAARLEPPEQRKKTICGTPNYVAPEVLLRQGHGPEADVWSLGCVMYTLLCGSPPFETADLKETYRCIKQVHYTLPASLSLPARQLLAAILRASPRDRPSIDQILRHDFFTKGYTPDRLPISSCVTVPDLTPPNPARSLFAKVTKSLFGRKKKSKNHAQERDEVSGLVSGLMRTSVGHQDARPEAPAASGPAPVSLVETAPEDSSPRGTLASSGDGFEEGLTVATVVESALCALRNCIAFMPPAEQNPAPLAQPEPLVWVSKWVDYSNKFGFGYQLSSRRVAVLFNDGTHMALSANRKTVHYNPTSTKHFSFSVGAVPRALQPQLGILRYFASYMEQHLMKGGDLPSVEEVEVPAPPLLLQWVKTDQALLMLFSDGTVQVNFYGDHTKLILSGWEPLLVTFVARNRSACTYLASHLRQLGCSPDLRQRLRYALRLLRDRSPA
# [1] = target: PI3 Kinase (p110a(E542K)/p85a)(m) (Mus musculus (Mouse), UniProt P42337, E542K); experiment: Kinase inhibition assay (KinaseProfiler, 33P-ATP); type: biochemical; details: read-out: The percentage of the remaining active protein
# TrkB = TrkB (Homo sapiens (Human), UniProt Q16620); experiment: Kinase inhibition assay (KinaseProfiler, 33P-ATP); type: biochemical; details: TrkB(h), read-out: The percentage of the remaining active protein
# DYRK2(h) = DYRK2(h) (Homo sapiens (Human), UniProt Q92630); experiment: Kinase inhibition assay (KinaseProfiler, 33P-ATP); type: biochemical; details: read-out: The percentage of the remaining active protein
# Sequence of DYRK2(h) (Q92630 whole entry): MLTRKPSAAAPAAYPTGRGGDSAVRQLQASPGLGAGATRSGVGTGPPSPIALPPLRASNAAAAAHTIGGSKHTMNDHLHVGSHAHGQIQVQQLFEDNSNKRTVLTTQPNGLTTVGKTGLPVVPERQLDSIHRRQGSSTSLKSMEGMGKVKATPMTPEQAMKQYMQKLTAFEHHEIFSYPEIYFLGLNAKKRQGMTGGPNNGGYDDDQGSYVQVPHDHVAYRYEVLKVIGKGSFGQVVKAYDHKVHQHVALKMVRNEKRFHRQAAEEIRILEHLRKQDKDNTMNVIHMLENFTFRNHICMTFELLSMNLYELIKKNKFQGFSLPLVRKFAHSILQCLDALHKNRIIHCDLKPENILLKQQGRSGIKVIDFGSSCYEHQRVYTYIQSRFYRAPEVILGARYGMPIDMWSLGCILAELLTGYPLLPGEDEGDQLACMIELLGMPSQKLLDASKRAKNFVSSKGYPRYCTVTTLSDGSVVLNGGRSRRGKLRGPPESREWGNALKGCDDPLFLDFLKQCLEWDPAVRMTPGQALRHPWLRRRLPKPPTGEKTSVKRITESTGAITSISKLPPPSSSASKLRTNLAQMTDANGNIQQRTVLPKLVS
# FGFR2 = FGFR2 (Homo sapiens (Human), UniProt P21802); experiment: Kinase inhibition assay (KinaseProfiler, 33P-ATP); type: biochemical
# Sequence of FGFR2 (P21802 22-821): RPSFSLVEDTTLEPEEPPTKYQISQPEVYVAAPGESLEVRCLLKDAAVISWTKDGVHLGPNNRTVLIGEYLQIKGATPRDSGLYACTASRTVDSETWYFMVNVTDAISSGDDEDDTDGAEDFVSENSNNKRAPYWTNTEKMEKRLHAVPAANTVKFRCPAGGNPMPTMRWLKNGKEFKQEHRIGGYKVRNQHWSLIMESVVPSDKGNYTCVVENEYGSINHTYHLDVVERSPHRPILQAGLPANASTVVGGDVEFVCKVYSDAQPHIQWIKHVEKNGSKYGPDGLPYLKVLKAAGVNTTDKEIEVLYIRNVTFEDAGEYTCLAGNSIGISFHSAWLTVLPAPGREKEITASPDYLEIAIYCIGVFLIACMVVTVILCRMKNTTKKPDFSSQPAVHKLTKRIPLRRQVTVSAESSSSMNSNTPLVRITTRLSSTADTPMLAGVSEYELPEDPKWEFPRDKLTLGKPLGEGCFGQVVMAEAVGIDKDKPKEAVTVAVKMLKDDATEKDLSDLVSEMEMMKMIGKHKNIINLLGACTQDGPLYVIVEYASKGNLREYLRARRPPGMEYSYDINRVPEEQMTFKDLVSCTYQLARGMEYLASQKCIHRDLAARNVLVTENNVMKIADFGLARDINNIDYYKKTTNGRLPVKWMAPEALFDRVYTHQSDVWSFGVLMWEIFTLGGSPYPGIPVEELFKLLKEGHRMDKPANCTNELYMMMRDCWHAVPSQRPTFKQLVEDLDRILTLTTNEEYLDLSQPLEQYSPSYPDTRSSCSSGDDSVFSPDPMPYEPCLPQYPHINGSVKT
# VRK2(h) = VRK2(h) (Homo sapiens (Human), UniProt Q86Y07); experiment: Kinase inhibition assay (KinaseProfiler, 33P-ATP); type: biochemical; details: read-out: The percentage of the remaining active protein
# Lyn(m) = Lyn(m) (Mus musculus (Mouse), UniProt P25911); experiment: Kinase inhibition assay (KinaseProfiler, 33P-ATP); type: biochemical; details: read-out: The percentage of the remaining active protein
# CDK2/cyclinA(h) = CDK2/cyclinA(h) (Homo sapiens (Human), UniProt P24941); experiment: Kinase inhibition assay (KinaseProfiler, 33P-ATP); type: biochemical; details: read-out: The percentage of the remaining active protein
# MAPKAP-K2(h) = MAPKAP-K2(h) (Homo sapiens (Human), UniProt P49137); experiment: Kinase inhibition assay (KinaseProfiler, 33P-ATP); type: biochemical; details: read-out: The percentage of the remaining active protein
# Sequence of MAPKAP-K2(h) (P49137 whole entry): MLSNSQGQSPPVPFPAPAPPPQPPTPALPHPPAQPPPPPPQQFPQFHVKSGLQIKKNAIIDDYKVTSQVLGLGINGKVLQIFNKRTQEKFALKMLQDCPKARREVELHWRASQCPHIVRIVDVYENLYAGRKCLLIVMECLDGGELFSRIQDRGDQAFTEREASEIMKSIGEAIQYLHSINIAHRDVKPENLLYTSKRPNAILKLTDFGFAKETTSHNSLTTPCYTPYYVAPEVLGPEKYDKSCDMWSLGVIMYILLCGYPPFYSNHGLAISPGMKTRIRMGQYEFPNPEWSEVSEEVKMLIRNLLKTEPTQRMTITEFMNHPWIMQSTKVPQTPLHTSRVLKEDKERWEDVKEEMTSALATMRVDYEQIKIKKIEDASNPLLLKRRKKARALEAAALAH
# CK1γ2(h) = CK1γ2(h) (Homo sapiens (Human), UniProt P78368); experiment: Kinase inhibition assay (KinaseProfiler, 33P-ATP); type: biochemical; details: read-out: The percentage of the remaining active protein
# ROCK-I(h) = ROCK-I(h) (Homo sapiens (Human), UniProt Q13464); experiment: Kinase inhibition assay (KinaseProfiler, 33P-ATP); type: biochemical; details: read-out: The percentage of the remaining active protein
# WNK2(h) = WNK2(h) (Homo sapiens (Human), UniProt Q9Y3S1); experiment: Kinase inhibition assay (KinaseProfiler, 33P-ATP); type: biochemical; details: read-out: The percentage of the remaining active protein
# DMPK(h) = DMPK(h) (Homo sapiens (Human), UniProt Q09013); experiment: Kinase inhibition assay (KinaseProfiler, 33P-ATP); type: biochemical; details: read-out: The percentage of the remaining active protein
# HIPK1(h) = HIPK1(h) (Homo sapiens (Human), UniProt Q86Z02); experiment: Kinase inhibition assay (KinaseProfiler, 33P-ATP); type: biochemical; details: read-out: The percentage of the remaining active protein
# Sequence of HIPK1(h) (Q86Z02 whole entry): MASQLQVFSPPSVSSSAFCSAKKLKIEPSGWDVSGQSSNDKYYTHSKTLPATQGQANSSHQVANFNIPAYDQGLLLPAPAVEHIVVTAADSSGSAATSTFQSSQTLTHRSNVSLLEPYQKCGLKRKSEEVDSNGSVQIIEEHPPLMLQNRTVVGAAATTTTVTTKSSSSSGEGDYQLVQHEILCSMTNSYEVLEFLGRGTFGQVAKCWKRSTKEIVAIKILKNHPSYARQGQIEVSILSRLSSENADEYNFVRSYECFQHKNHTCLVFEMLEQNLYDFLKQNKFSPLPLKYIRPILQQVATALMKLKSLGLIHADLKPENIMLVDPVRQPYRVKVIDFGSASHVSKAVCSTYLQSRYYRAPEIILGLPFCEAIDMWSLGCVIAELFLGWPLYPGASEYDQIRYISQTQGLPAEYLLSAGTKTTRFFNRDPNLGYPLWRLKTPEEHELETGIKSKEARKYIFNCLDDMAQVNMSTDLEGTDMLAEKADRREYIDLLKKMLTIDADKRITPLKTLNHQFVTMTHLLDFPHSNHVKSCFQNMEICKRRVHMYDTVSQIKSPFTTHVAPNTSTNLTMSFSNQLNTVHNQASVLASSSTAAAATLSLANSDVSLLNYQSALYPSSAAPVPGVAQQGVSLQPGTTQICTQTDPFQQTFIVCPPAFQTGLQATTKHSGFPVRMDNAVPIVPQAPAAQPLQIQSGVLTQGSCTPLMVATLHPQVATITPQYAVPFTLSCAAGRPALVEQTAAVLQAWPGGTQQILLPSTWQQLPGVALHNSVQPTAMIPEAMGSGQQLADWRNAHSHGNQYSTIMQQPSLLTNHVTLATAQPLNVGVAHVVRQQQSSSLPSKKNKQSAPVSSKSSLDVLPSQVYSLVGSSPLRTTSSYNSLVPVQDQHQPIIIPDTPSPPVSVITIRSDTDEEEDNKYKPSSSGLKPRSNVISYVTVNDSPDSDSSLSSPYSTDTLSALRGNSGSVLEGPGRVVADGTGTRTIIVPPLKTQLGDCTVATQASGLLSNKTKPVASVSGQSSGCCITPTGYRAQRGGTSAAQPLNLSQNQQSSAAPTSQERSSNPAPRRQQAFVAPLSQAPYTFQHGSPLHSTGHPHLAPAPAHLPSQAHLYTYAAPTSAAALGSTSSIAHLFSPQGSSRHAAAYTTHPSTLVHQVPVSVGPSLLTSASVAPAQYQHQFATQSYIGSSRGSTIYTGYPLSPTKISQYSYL
# CLK2(h) = CLK2(h) (Homo sapiens (Human), UniProt P49760); experiment: Kinase inhibition assay (KinaseProfiler, 33P-ATP); type: biochemical; details: read-out: The percentage of the remaining active protein
# PKCθ(h) = PKCθ(h) (Homo sapiens (Human), UniProt Q04759); experiment: Kinase inhibition assay (KinaseProfiler, 33P-ATP); type: biochemical; details: read-out: The percentage of the remaining active protein
# Rsk1(h) = Rsk1(h) (Homo sapiens (Human), UniProt Q15418); experiment: Kinase inhibition assay (KinaseProfiler, 33P-ATP); type: biochemical; details: read-out: The percentage of the remaining active protein
# Blk(m) = Blk(m) (Mus musculus (Mouse), UniProt P16277); experiment: Kinase inhibition assay (KinaseProfiler, 33P-ATP); type: biochemical; details: read-out: The percentage of the remaining active protein
# DU145 = experiment: Cell proliferation inhibition assay (MTT); type: cell-based; details: Homo sapiens, DU-145, 72 hours, read-out: Proliferation inhibitory activity IC50
# Procedure: as §1
# CDK5/p25(h) = CDK5/p25(h) (Homo sapiens (Human), UniProt Q00535); experiment: Kinase inhibition assay (KinaseProfiler, 33P-ATP); type: biochemical; details: read-out: The percentage of the remaining active protein
# Sequence of CDK5/p25(h) (Q00535 whole entry): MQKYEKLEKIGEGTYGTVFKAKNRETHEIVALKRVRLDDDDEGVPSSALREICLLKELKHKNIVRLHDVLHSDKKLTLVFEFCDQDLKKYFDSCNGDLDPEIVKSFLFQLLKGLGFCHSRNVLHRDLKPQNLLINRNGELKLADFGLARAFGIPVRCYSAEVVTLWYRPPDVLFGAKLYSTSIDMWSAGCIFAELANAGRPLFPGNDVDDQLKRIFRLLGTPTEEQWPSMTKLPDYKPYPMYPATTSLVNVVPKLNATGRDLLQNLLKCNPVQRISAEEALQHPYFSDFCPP
# Sequence of CDK5/p25(h) (Q15078 99-307 partner): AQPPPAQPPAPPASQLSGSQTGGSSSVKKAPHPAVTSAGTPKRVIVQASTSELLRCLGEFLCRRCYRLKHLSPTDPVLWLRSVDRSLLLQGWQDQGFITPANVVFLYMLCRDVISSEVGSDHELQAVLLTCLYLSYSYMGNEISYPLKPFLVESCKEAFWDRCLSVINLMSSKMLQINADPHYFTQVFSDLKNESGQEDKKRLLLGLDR
# BRK = BRK (Homo sapiens (Human), UniProt Q13882); experiment: Kinase inhibition assay (KinaseProfiler, 33P-ATP); type: biochemical; details: BRK(h), read-out: The percentage of the remaining active protein
# LKB1(h) = LKB1(h) (Homo sapiens (Human), UniProt Q15831); experiment: Kinase inhibition assay (KinaseProfiler, 33P-ATP); type: biochemical; details: read-out: The percentage of the remaining active protein
# [2] = target: PI3 Kinase (p110a(H1047R)/p85a)(h) (Homo sapiens (Human), UniProt P42336, H1047R); experiment: Kinase inhibition assay (KinaseProfiler, 33P-ATP); type: biochemical; details: read-out: The percentage of the remaining active protein
# IKKε(h) = IKKε(h) (Homo sapiens (Human), UniProt Q14164); experiment: Kinase inhibition assay (KinaseProfiler, 33P-ATP); type: biochemical; details: read-out: The percentage of the remaining active protein
# MARK1(h) = MARK1(h) (Homo sapiens (Human), UniProt Q9P0L2); experiment: Kinase inhibition assay (KinaseProfiler, 33P-ATP); type: biochemical; details: read-out: The percentage of the remaining active protein
# ALK1(h) = ALK1(h) (Homo sapiens (Human), UniProt P37023); experiment: Kinase inhibition assay (KinaseProfiler, 33P-ATP); type: biochemical; details: read-out: The percentage of the remaining active protein
# MKK6(h) = MKK6(h) (Homo sapiens (Human), UniProt P52564); experiment: Kinase inhibition assay (KinaseProfiler, 33P-ATP); type: biochemical; details: read-out: The percentage of the remaining active protein
# Sequence of MKK6(h) (P52564 whole entry): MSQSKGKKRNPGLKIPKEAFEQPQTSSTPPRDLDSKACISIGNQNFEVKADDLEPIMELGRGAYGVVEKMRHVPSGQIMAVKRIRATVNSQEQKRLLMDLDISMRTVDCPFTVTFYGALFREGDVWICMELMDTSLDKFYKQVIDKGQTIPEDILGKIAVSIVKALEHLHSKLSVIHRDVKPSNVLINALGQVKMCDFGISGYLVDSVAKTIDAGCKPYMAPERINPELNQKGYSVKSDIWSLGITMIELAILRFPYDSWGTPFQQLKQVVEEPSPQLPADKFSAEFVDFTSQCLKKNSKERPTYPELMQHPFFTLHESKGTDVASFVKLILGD
# CHK2(R145W)(h) = CHK2(R145W)(h) (Homo sapiens (Human), UniProt O96017, R145W); experiment: Kinase inhibition assay (KinaseProfiler, 33P-ATP); type: biochemical; details: read-out: The percentage of the remaining active protein
# PKBγ(h) = PKBγ(h) (Homo sapiens (Human), UniProt Q9Y243); experiment: Kinase inhibition assay (KinaseProfiler, 33P-ATP); type: biochemical; details: read-out: The percentage of the remaining active protein
# IGF-1R(h) = IGF-1R(h) (Homo sapiens (Human), UniProt P08069); experiment: Kinase inhibition assay (KinaseProfiler, 33P-ATP); type: biochemical; details: read-out: The percentage of the remaining active protein
# [3] = target: PI3 Kinase (p110a/p65a)(m) (Mus musculus (Mouse), UniProt P42337); experiment: Kinase inhibition assay (KinaseProfiler, 33P-ATP); type: biochemical; details: read-out: The percentage of the remaining active protein
# PKCμ(h) = PKCμ(h) (Homo sapiens (Human), UniProt Q15139); experiment: Kinase inhibition assay (KinaseProfiler, 33P-ATP); type: biochemical; details: read-out: The percentage of the remaining active protein
# CDK6/cyclinD3(h) = CDK6/cyclinD3(h) (Homo sapiens (Human), UniProt Q00534); experiment: Kinase inhibition assay (KinaseProfiler, 33P-ATP); type: biochemical; details: read-out: The percentage of the remaining active protein
compound,measurement,setting,value
Cc1ccc(NC(=O)c2cccc(C(F)(F)F)c2)cc1C#Cc1nn(C2CCN(C)CC2)c2ncnc(N)c12 [Compound 31],IC50,H4,1810 nM
same,IC50,MM.1S,2380 nM
Cc1ccc(NC(=O)c2ccc(C)c(C(F)(F)F)c2)cc1C#Cc1nn([C@H]2CC[C@H](O)CC2)c2ncnc(N)c12 [Compound 93],remaining activity at 10 µM,SGK3(h),98%
same,remaining activity at 10 µM,Plk3(h),93%
same,remaining activity at 10 µM,[1],92%
same,remaining activity at 10 µM,TrkB,4%
same,remaining activity at 10 µM,DYRK2(h),107%
same,remaining activity at 10 µM,"FGFR2; FGFR2(h), 10 μM, read-out: The percentage of the remaining active protein",0%
same,IC50,"FGFR2; FGFR2, ATP at Km",40 nM
same,remaining activity at 10 µM,VRK2(h),85%
same,remaining activity at 10 µM,Lyn(m),-1%
same,remaining activity at 10 µM,CDK2/cyclinA(h),100%
same,remaining activity at 10 µM,MAPKAP-K2(h),104%
same,remaining activity at 10 µM,CK1γ2(h),114%
same,remaining activity at 10 µM,ROCK-I(h),126%
same,remaining activity at 10 µM,WNK2(h),105%
same,remaining activity at 10 µM,DMPK(h),91%
same,remaining activity at 10 µM,HIPK1(h),107%
same,remaining activity at 10 µM,CLK2(h),47%
same,remaining activity at 10 µM,PKCθ(h),103%
same,remaining activity at 10 µM,Rsk1(h),11%
same,remaining activity at 10 µM,Blk(m),1%
same,IC50,DU145,> 10000 nM
same,remaining activity at 10 µM,CDK5/p25(h),87%
same,remaining activity at 10 µM,BRK,-1%
same,remaining activity at 10 µM,LKB1(h),94%
same,remaining activity at 10 µM,[2],89%
same,remaining activity at 10 µM,IKKε(h),94%
same,remaining activity at 10 µM,MARK1(h),94%
same,remaining activity at 10 µM,ALK1(h),71%
same,remaining activity at 10 µM,MKK6(h),43%
same,remaining activity at 10 µM,CHK2(R145W)(h),102%
same,remaining activity at 10 µM,PKBγ(h),94%
same,remaining activity at 10 µM,IGF-1R(h),66%
same,remaining activity at 10 µM,[3],94%
same,remaining activity at 10 µM,PKCμ(h),91%
same,remaining activity at 10 µM,CDK6/cyclinD3(h),120%
